Source: patent US7635691B2, “Use of CDP-choline for the prophylactic treatment of cerebral ischemia” (Ferrer Internacional, S.A., priority 2000, dated 2009)

System: caspases 1, 2, 3, 6 and 8
Experiment: Caspase expression (apoptosis markers) after permanent middle cerebral artery occlusion, model of cortical cerebral ischemia in the rat
Format: in vivo
Method: The effect of CDP-Choline on deferred nerve cell death (apoptosis) has been assessed in a model of cortical cerebral ischemia in the rat in accordance with the following experimental protocol:
All cerebral infarction tests were performed in male Sprague-Dawley rats weighing 220-270 g. Animals were housed, with free access to food and water, in temperature- and humidity-controlled rooms with a 12/12 h light-dark cycle.
Cerebral ischemia was induced by a permanent proximal occlusion of the middle cerebral artery using electrocoagulation. Under deep anesthesia, the rat head was clipped and an incision was made between the left ear and the left eye. Then, the cranium was exposed by sectioning the temporal muscle. Craniotomy was performed using a 1-2 mm drill behind the scaly fissure. The dura mater was drilled in order to expose the middle cerebral artery arm which was permanently coagulated.
Rats were randomly divided into three groups:
(a) After 30 minutes of ischemia, the animals in this group were treated with CDP-Choline (500 mg/kg) in 0.9% sterile physiologic saline (0.1 ml) administered intraperitoneally. This group is depicted in FIGS. 1 through 5 as “After.”
(b) Since 24 hours before ischemia and after 30 minutes of ischemia, the animals in this group received the same treatment as in group (a). This group is depicted in FIGS. 1 through 5 as “Before.”
(c) The animals in this group were used as control. After ischemia, they were treated with 0.9% physiologic saline vehicle (0.1 ml) administered intraperitoneally. This group is depicted in FIGS. 1 through 5 as “Control.”
The animals were allowed to recover at different times (30 min and 1, 4, 8, 12, 24 and 48 hours) before terminal anesthesia with ethyl ether. […]
For assessment of the effect of treatment, the expression of caspases 1, 2, 3, 6 and 8, as markers of apoptosis process, was measured 12 hours after infarction induction, whose results are shown in FIGS. 1, 2, 3, 4, and 5, respectively. […]

Compound: C[N+](C)(C)CCOP(=O)(O)OP(=O)([O-])OC[C@H]1O[C@@H](n2ccc(N)nc2=O)[C@H](O)[C@@H]1O [CDP-Choline, cytidine-diphosphate-choline]
- caspase level, treatment before and after ischemia compared with treatment only after ischemia (500 mg/kg intraperitoneally from 24 hours before ischemia and 30 minutes after ischemia ('Before') vs only 30 minutes after ischemia ('After'), 12 hours after infarction induction): decreases caspase level more significantly than when administered only after infarction induction
- expression of caspases 1, 2, 3, 6 and 8 as markers of apoptosis process, treated vs control (male Sprague-Dawley rats, CDP-Choline 500 mg/kg intraperitoneally, groups 'After' and 'Before' vs saline control, measured 12 hours after infarction induction, figures in immunofluorescence units): significant differences between treated and control animals
- nerve cell apoptosis in the penumbra area (summary statement in the description, rat focal ischemia model): reduces nerve cell apoptosis in the penumbra area
